Earlier results on one compound are cited in patent publication US8178105B2, “Composition containing Agaricus blazei Murill” (Kyowa Hakko Bio Co., Ltd., priority 2006, dated 2012).

The subject of the data set is Sarcoma-180. Conditions: oral administration; Sarcoma-180 transplanted mouse; non-patent document 5.

Consider `N=C(N)NCCC[C@H](N)C(=O)O` [arginine], for which the “antitumor effect and life extension (in words)” value was “marked antitumor effect and life extension”.
